Results on 8 compounds are retold here after patent publication US12661410B2, “Compounds for targeted degradation of RET” (C4 Therapeutics, Inc., priority 2020, dated 2026).

The target of one test is T1, RET (658-1114) (Homo sapiens, UniProt P07949).
T1 construct: 658-1114; expressed in transfected cells; host or cells: 293T.144 (293T cells, generated in-house)
T1 sequence (P07949 658-1114): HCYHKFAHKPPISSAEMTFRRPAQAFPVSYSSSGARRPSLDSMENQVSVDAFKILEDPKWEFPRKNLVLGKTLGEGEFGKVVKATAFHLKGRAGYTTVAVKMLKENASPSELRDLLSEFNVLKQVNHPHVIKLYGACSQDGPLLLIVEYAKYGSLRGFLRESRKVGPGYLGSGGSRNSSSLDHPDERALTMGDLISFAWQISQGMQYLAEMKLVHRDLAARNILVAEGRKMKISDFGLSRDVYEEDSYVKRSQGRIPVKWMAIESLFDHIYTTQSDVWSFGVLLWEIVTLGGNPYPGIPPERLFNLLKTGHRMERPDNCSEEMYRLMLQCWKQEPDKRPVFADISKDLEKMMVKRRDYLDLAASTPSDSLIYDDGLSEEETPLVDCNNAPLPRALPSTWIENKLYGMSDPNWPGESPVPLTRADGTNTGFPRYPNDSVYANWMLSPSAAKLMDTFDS
Description: HiBiT-Degradation, RET wild-type degradation assay (Nano-Glo HiBiT Lytic), 293T.144 cells. In kind it is cell-based. As to conditions: for Emax / DC50: 6.0 hours; for Emax: read-out: 293T.144 RET (658-1114) 6.0 hours (Emax); for DC50: read-out: 293T.144 RET (658-1114) 6.0 hours (DC50). The method in brief: (§1)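 Engineered 293T cells carry a HiBiT tag on the RET kinase domain, either wild type (line 293T.144) or G810R (line 293T.165). Compounds act for 6 h across a 10 μM-top, half-log 11-point range. Lytic HiBiT luminescence gives remaining protein, fitted for DC50 and Emax.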
For orientation: HiBiT is a short tag that completes a luciferase, so light tracks the accessible tagged protein.

A further test addresses T2, RET(KD: 658-1114 G810R) (Homo sapiens, UniProt P07949, G810R).
T2 construct: 658-1114; expressed in transfected cells; host or cells: 293T.165 (293T cells, generated in-house)
T2 sequence (P07949 658-1114 G810R): T1 sequence (P07949 658-1114) with G153R
Description: HiBiT-Degradation, RET G810R degradation assay (Nano-Glo HiBiT Lytic), 293T.165 cells. Type of test: cell-based. As to conditions: for Emax / DC50: 6.0 hours; for Emax: % remaining protein, read-out: 293T.165 RET(KD: 658-1114 G810R) 6.0 hours (Emax); for DC50: read-out: 293T.165 RET(KD: 658-1114 G810R) 6.0 hours (DC50). The method in brief:
as §1

Setting [1] is: half-maximal degradation concentration.

In general, Emax refers to the size of the effect at its maximum, as opposed to the concentration needed. The DC50 is the concentration at which degradation of the target reaches its halfway point.

The structures appear in SMILES notation. Numbering of substitutions follows the chain as printed. Read-outs that look alike come from different tables or passages of the source.

Consider `CCC1(C(=O)NC[C@H]2C[C@@H](F)C2)CCN(c2ccc(-c3nc(-c4cnn([C@H]5CC[C@H](N6CCN(c7ccc(NC8CCC(=O)NC8=O)cc7F)CC6)CC5)c4)cn4ncc(C#N)c34)cn2)CC1` (stereo partly drawn) [Compound 210, 1-[5-[3-cyano-6-[1-[4-[4-[4-[(2,6-dioxo-3-piperidyl)amino]-2-fluoro-phenyl]piperazin-1-yl]cyclohexyl]pyrazol-4-yl]pyrazolo[1,5-a]pyrazin-4-yl]-2-pyridyl]-4-ethyl-N-[(3-fluorocyclobutyl)methyl]piperidine-4-carboxamide], for which, at RET (658-1114), the “293T.144 RET (658-1114) 6.0 hours (IP) [nM]” value (“293T.144 RET” below) is recorded as “++++ (<50 nM = ++++)”. For the same compound, the Emax at RET (658-1114) (% remaining protein) and at RET(KD: 658-1114 G810R) was under 30% each time. Also, the DC50 at RET (658-1114) (setting [1]) was under 50 nM; at RET(KD: 658-1114 G810R) (setting [1]), under 100 nM. The “293T.165 RET(KD: 658-1114 G810R) 6.0 hours (IP) [nM]” value at RET(KD: 658-1114 G810R) is given as “++++ (<50 nM = ++++)”.
On to `N#Cc1cnn2cc(-c3cnn([C@H]4CC[C@@H](N5CCN(c6c(F)cc(NC7CCC(=O)NC7=O)cc6F)CC5)CC4)c3)cc(-c3ccc(N4CCC5(CC4)OCc4cccnc45)nc3)c12` (single isomer, unassigned) [Compound 202, 4-(6-(5H-spiro[furo[3,4-b]pyridine-7,4′-piperidin]-1′-yl)pyridin-3-yl)-6-(1-((1s, 4s)-4-(4-(4-((2,6-dioxopiperidin-3-yl)amino)-2,6-difluorophenyl)piperazin-1-yl)cyclohexyl)-1H-pyrazol-4-yl)pyrazolo[1,5-a]pyridine-3-carbonitrile], for which, on RET (658-1114), the “293T.144 RET” value is “++++ (<50 nM = ++++)”. For the same compound, the Emax on RET (658-1114) (% remaining protein) and on RET(KD: 658-1114 G810R) was under 30% in each case. Also, the DC50 at RET (658-1114) (setting [1]) and at RET(KD: 658-1114 G810R) (setting [1]) was under 50 nM each time. The “293T.165 RET(KD: 658-1114 G810R) 6.0 hours (IP) [nM]” value at RET(KD: 658-1114 G810R) is “++++ (<50 nM = ++++)”.
As for `N#Cc1cnn2cc(-c3ccc(N4CCN(C(=O)CN5CCC(c6ccc(NC7CCC(=O)NC7=O)cc6)CC5)CC4)cc3)cc(-c3ccc(N4C[C@H]5CC[C@@H](C4)O5)nc3)c12` (stereo partly drawn) [Compound 19, 4-(6-((1R,5S)-8—Oxa-3-azabicyclo[3.2.1]octan-3-yl)pyridin-3-yl)-6-(4-(4-(2-(4-(4-((2,6-dioxopiperidin-3-yl)amino)phenyl)piperidin-1-yl)acetyl)piperazin-1-yl)phenyl)pyrazolo[1,5-a]pyridine-3-carbonitrile], on RET (658-1114) (HiBiT-Degradation), the “293T.144 RET” value was “++++ (< 50 nM = ++++)”, the DC50 was under 50 nM and the Emax is under 30%. For the same compound, the Emax at RET(KD: 658-1114 G810R) is under 50%. Also, on RET(KD: 658-1114 G810R) (setting [1]), the DC50 was under 100 nM. In addition, at RET(KD: 658-1114 G810R) (HiBiT-Degradation), the “293T.165 RET(KD: 658-1114 G810R) 6.0 hours (Emax)” value was “+++ (<50% = +++)”, the “293T.165 RET(KD: 658-1114 G810R) 6.0 hours (IP) [nM]” value is on record as “++++ (< 50 nM = ++++)” and the DC50 is under 100 nM.
Regarding `N#Cc1cnn2cc(-c3cnn([C@H]4CC[C@H](N5CCN(c6c(F)cc(N[C@@H]7CCC(=O)NC7=O)cc6F)CC5)CC4)c3)nc(-c3ccc(N4CCC5(CC4)OCc4cccnc45)nc3)c12` (racemic) [Compound 218, 6-[1-[4-[4-[2,6-difluoro-4-[[rac-(3R)-2,6-dioxo-3-piperidyl]amino]phenyl]piperazin-1-yl]cyclohexyl]pyrazol-4-yl]-4-(6-spiro[5H-furo[3,4-b]pyridine-7,4′-piperidine]-1′-yl-3-pyridyl)pyrazolo[1,5-a]pyrazine-3-carbonitrile], on RET (658-1114), the “293T.144 RET” value is “++++ (<50 nM = ++++)”. In addition, the Emax on RET (658-1114) (% remaining protein) and at RET(KD: 658-1114 G810R) was under 30% each time. Moreover, the DC50 at RET (658-1114) (setting [1]) and on RET(KD: 658-1114 G810R) (setting [1]) was under 50 nM throughout. On RET(KD: 658-1114 G810R), the “293T.165 RET(KD: 658-1114 G810R) 6.0 hours (IP) [nM]” value is “++++ (<50 nM = ++++)”.
For the compound `CCC1(C(=O)NC(C)C)CCN(c2ccc(-c3nc(-c4cnn(C5CCN(C(=O)CC6(OC)CCN(c7ccc(NC8CCC(=O)NC8=O)cc7F)CC6)CC5)c4)cn4ncc(C#N)c34)cn2)CC1` (stereo not drawn) [Compound 92, 1-[5-[3-cyano-6-[1-[1-[2-[1-[4-[(2,6-dioxo-3-piperidyl)amino]-2-fluoro-phenyl]-4-methoxy-4-piperidyl]acetyl]-4-piperidyl]pyrazol-4-yl]pyrazolo[1,5-a]pyrazin-4-yl]-2-pyridyl]-4-ethyl-N-isopropyl-piperidine-4-carboxamide], the “293T.144 RET” value at RET (658-1114) is listed as “++++ (<50 nM = ++++)”. Moreover, the maximal effect (Emax) on RET (658-1114) (% remaining protein) and at RET(KD: 658-1114 G810R) was under 30% throughout. The DC50 is under 50 nM at RET (658-1114) (setting [1]) and under 100 nM on RET(KD: 658-1114 G810R) (setting [1]). Moreover, on RET(KD: 658-1114 G810R), the “293T.165 RET(KD: 658-1114 G810R) 6.0 hours (IP) [nM]” value is listed as “++++ (<50 nM = ++++)”.
Regarding `CCC1(c2ncccn2)CCN(c2ccc(-c3nc(-c4cnn(C5CCN(C(=O)CC6(O)CCN(c7ccc(NC8CCC(=O)NC8=O)cc7F)CC6)CC5)c4)cn4ncc(C#N)c34)cn2)CC1` (stereo not drawn) [Compound 105, 6-[1-[1-[2-[1-[4-[(2,6-dioxo-3-piperidyl)amino]-2-fluoro-phenyl]-4-hydroxy-4-piperidyl]acetyl]-4-piperidyl]pyrazol-4-yl]-4-[6-(4-ethyl-4-pyrimidin-2-yl-1-piperidyl)-3-pyridyl]pyrazolo[1,5-a]pyrazine-3-carbonitrile], the “293T.144 RET” value on RET (658-1114) was “++++ (<50 nM = ++++)”. For the same compound, the Emax on RET (658-1114) (% remaining protein) was under 30%; at RET(KD: 658-1114 G810R), under 50%. Further, the DC50 on RET (658-1114) (setting [1]) and at RET(KD: 658-1114 G810R) (setting [1]) was under 50 nM in each case. For the same compound, the “293T.165 RET(KD: 658-1114 G810R) 6.0 hours (IP) [nM]” value on RET(KD: 658-1114 G810R) is “++++ (<50 nM = ++++)”.
Regarding `CC(=O)N1CCN(c2ccc(-c3nc(-c4ccc(N5CCN(C(=O)CN6CCC(c7ccc(NC8CCC(=O)NC8=O)cc7)CC6)CC5)cc4)cn4ncc(C#N)c34)cn2)CC1` (stereo not drawn) [Compound 27, 4-(6-(4-acetylpiperazin-1-yl)pyridin-3-yl)-6-(4-(4-(2-(4-(4-((2,6-dioxopiperidin-3-yl)amino)phenyl)piperidin-1-yl)acetyl)piperazin-1-yl)phenyl)pyrazolo[1,5-a]pyrazine-3-carbonitrile], on RET (658-1114) (HiBiT-Degradation), the “293T.144 RET” value is “++++ (< 50 nM = ++++)”, the DC50 was under 50 nM and the Emax was under 30%. Moreover, on RET(KD: 658-1114 G810R), the Emax is under 30%. The DC50 at RET(KD: 658-1114 G810R) (setting [1]) was under 50 nM. Further, at RET(KD: 658-1114 G810R) (HiBiT-Degradation), the “293T.165 RET(KD: 658-1114 G810R) 6.0 hours (Emax)” value is recorded as “++++ (< 30% = ++++)”, the “293T.165 RET(KD: 658-1114 G810R) 6.0 hours (IP) [nM]” value is “++++ (< 50 nM = ++++)” and the DC50 is under 50 nM.
Consider `Cn1nc(N2CCC(=O)NC2=O)c2ccc(C3CCN(CC(=O)N4CCC(n5cc(-c6cc(-c7ccc(N8CCN(Cc9ccccn9)CC8)nc7)c7c(C#N)cnn7c6)cn5)CC4)CC3)cc21` [Compound 13, 6-(1-(1-(2-(4-(3-(2,4-dioxotetrahydropyrimidin-1(2H)-yl)-1-methyl-1H-indazol-6-yl)piperidin-1-yl)acetyl)piperidin-4-yl)-1H-pyrazol-4-yl)-4-(6-(4-(pyridin-2-ylmethyl)piperazin-1-yl)pyridin-3-yl)pyrazolo[1,5-a]pyridine-3-carbonitrile], for which, at RET (658-1114) (HiBiT-Degradation), the “293T.144 RET” value is “++++ (< 50 nM = ++++)”, the DC50 is under 50 nM and the Emax is under 30%. The Emax at RET(KD: 658-1114 G810R) was under 50%. The DC50 at RET(KD: 658-1114 G810R) (setting [1]) is under 100 nM. Besides, at RET(KD: 658-1114 G810R) (HiBiT-Degradation), the “293T.165 RET(KD: 658-1114 G810R) 6.0 hours (Emax)” value is “+++ (<50% = +++)”, the “293T.165 RET(KD: 658-1114 G810R) 6.0 hours (IP) [nM]” value is “++++ (< 50 nM = ++++)” and the DC50 was under 100 nM.
